From paper PMC9506414, “Novel 2,6,9-Trisubstituted Purines as Potent CDK Inhibitors Alleviating Trastuzumab-Resistance of HER2-Positive Breast Cancers” (Pharmaceuticals, 2022)

Tests used:
Assay in all cases: Kinome-wide inhibition profiling
Assay type in all cases: biochemical
MRCKb = target: T1, MRCKb (Homo sapiens, UniProt Q9Y5S2)
T1 construct: purchased Reaction Biology Corp
Experimental: (§1) In vitro CDK12/cyclinK assays for all compounds and in vitro kinome-wide inhibition profiling of 30d at 10 μM were performed by a CRO company (Reaction Biology Corp., San Diego, CA, USA).

PASK = target: T2, PASK (Homo sapiens, UniProt Q96RG2)
T2 construct: purchased Reaction Biology Corp
Experimental: as §1

RIPK4 = target: T3, RIPK4 (Homo sapiens, UniProt P57078)
T3 construct: purchased Reaction Biology Corp
Experimental: as §1

CDK3/cyclinE = target: T4, CDK3/cyclinE (Homo sapiens, UniProt Q00526)
T4 construct: purchased Reaction Biology Corp
Experimental: as §1

CAMKK1 = target: T5, CAMKK1 (Homo sapiens, UniProt Q8N5S9)
T5 construct: purchased Reaction Biology Corp
Experimental: as §1

TAOK1 = target: T6, TAOK1 (Homo sapiens, UniProt Q7L7X3)
T6 construct: purchased Reaction Biology Corp
Experimental: as §1

MYLK4 = target: T7, MYLK4 (Homo sapiens, UniProt Q86YV6)
T7 construct: purchased Reaction Biology Corp
Experimental: as §1

CSNK1D = target: T8, CSNK1D (Homo sapiens, UniProt P48730)
T8 construct: purchased Reaction Biology Corp
Experimental: as §1

ZAK = target: T9, ZAK (Homo sapiens, UniProt Q9NYL2)
T9 construct: purchased Reaction Biology Corp
Experimental: as §1

PLK1 = target: T10, PLK1 (Homo sapiens, UniProt P53350)
T10 construct: purchased Reaction Biology Corp
Experimental: as §1

PRKCI = target: T11, PRKCI (Homo sapiens, UniProt P41743)
T11 construct: purchased Reaction Biology Corp
Experimental: as §1

GRK1 = target: T12, GRK1 (Homo sapiens, UniProt Q15835)
T12 construct: purchased Reaction Biology Corp
Experimental: as §1

MRCKa = target: T13, MRCKa (Homo sapiens, UniProt Q5VT25)
T13 construct: purchased Reaction Biology Corp
Experimental: as §1

DMPK2 = target: T14, DMPK2 (Homo sapiens, UniProt Q6DT37)
T14 construct: purchased Reaction Biology Corp
Experimental: as §1

BLK = target: T15, BLK (Homo sapiens, UniProt P51451)
T15 construct: purchased Reaction Biology Corp
Experimental: as §1

TTBK1 = target: T16, TTBK1 (Homo sapiens, UniProt Q5TCY1)
T16 construct: purchased Reaction Biology Corp
Experimental: as §1

RSK1 = target: T17, RSK1 (Homo sapiens, UniProt Q15418)
T17 construct: purchased Reaction Biology Corp
Experimental: as §1

MLK4 = target: T18, MLK4 (Homo sapiens, UniProt Q5TCX8)
T18 construct: purchased Reaction Biology Corp
Experimental: as §1

CLK4 = target: T19, CLK4 (Homo sapiens, UniProt Q9HAZ1)
T19 construct: purchased Reaction Biology Corp
Experimental: as §1

PCTK3 = target: T20, PCTK3 (Homo sapiens, UniProt Q07002)
T20 construct: purchased Reaction Biology Corp
Experimental: as §1

STK33 = target: T21, STK33 (Homo sapiens, UniProt Q9BYT3)
T21 construct: purchased Reaction Biology Corp
Experimental: as §1

MLK2 = target: T22, MLK2 (Homo sapiens, UniProt Q02779)
T22 construct: purchased Reaction Biology Corp
Experimental: as §1

MARK3 = target: T23, MARK3 (Homo sapiens, UniProt P27448)
T23 construct: purchased Reaction Biology Corp
Experimental: as §1

GRK2 = target: T24, GRK2 (Homo sapiens, UniProt P25098)
T24 construct: purchased Reaction Biology Corp
Experimental: as §1

MEK5 = target: T25, MEK5 (Homo sapiens, UniProt Q13163)
T25 construct: purchased Reaction Biology Corp
Experimental: as §1

PKCb1 = target: T26, PKCb1 (Homo sapiens, UniProt P05771)
T26 construct: purchased Reaction Biology Corp
Experimental: as §1

MNK2 = target: T27, MNK2 (Homo sapiens, UniProt Q9HBH9)
T27 construct: purchased Reaction Biology Corp
Experimental: as §1

LCK = target: T28, LCK (Homo sapiens, UniProt P06239)
T28 construct: purchased Reaction Biology Corp
Experimental: as §1

PCTK2 = target: T29, PCTK2 (Homo sapiens, UniProt Q00537)
T29 construct: purchased Reaction Biology Corp
Experimental: as §1

TAK1 = target: T30, TAK1 (Homo sapiens, UniProt O43318)
T30 construct: purchased Reaction Biology Corp
Experimental: as §1

BRAF = target: T31, BRAF (Homo sapiens, UniProt P15056)
T31 construct: purchased Reaction Biology Corp
Experimental: as §1

NEK11 = target: T32, NEK11 (Homo sapiens, UniProt Q8NG66)
T32 construct: purchased Reaction Biology Corp
Experimental: as §1

BMPR1A = target: T33, BMPR1A (Homo sapiens, UniProt P36894)
T33 construct: purchased Reaction Biology Corp
Experimental: as §1

PBK/TOPK = target: T34, PBK/TOPK (Homo sapiens, UniProt Q96KB5)
T34 construct: purchased Reaction Biology Corp
Experimental: as §1

CSNK1G2 = target: T35, CSNK1G2 (Homo sapiens, UniProt P78368)
T35 construct: purchased Reaction Biology Corp
Experimental: as §1

SNRK = target: T36, SNRK (Homo sapiens, UniProt Q9NRH2)
T36 construct: purchased Reaction Biology Corp
Experimental: as §1

AurkA = target: T37, AurkA (Homo sapiens, UniProt O14965)
T37 construct: purchased Reaction Biology Corp
Experimental: as §1

FAK = target: T38, FAK (Homo sapiens, UniProt Q05397)
T38 construct: purchased Reaction Biology Corp
Experimental: as §1

MYO3A = target: T39, MYO3A (Homo sapiens, UniProt Q8NEV4)
T39 construct: purchased Reaction Biology Corp
Experimental: as §1

DAPK1 = target: T40, DAPK1 (Homo sapiens, UniProt P53355)
T40 construct: purchased Reaction Biology Corp
Experimental: as §1

ULK1 = target: T41, ULK1 (Homo sapiens, UniProt O75385)
T41 construct: purchased Reaction Biology Corp
Experimental: as §1

LOK = target: T42, LOK (Homo sapiens, UniProt O94804)
T42 construct: purchased Reaction Biology Corp
Experimental: as §1

NIM1 = target: T43, NIM1 (Homo sapiens, UniProt Q8IY84)
T43 construct: purchased Reaction Biology Corp
Experimental: as §1

T4 sequence (Q00526 whole entry): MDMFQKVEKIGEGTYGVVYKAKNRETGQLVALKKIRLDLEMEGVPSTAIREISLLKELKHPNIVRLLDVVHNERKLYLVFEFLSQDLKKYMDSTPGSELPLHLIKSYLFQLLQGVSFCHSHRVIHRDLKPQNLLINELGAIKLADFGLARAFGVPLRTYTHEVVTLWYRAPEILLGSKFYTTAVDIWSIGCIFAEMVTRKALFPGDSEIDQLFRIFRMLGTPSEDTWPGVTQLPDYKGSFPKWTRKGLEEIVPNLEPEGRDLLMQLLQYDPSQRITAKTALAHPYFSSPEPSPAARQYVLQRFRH
T4 sequence (P24864 whole entry partner): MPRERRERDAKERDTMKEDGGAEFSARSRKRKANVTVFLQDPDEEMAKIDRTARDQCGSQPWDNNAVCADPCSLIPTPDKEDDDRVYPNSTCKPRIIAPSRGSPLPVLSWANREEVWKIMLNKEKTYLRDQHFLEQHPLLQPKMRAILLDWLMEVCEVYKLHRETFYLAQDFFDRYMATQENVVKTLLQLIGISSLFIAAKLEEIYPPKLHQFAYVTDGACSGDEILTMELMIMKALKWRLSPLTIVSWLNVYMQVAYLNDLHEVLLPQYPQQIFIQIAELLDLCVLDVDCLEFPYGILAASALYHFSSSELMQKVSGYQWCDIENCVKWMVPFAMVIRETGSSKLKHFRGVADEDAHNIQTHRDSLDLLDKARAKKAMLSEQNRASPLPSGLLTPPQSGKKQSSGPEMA
T7 sequence (Q86YV6 whole entry): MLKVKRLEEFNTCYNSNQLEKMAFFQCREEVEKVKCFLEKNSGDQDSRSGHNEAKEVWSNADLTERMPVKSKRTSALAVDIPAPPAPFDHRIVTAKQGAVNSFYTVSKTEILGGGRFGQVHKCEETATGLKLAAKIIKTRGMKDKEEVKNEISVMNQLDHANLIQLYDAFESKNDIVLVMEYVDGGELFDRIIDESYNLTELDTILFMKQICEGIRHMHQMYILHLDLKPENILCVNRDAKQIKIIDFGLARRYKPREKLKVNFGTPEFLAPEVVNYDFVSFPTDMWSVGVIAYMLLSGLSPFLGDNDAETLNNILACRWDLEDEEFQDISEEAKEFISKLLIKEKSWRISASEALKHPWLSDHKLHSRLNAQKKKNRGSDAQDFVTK
T20 sequence (Q07002 whole entry): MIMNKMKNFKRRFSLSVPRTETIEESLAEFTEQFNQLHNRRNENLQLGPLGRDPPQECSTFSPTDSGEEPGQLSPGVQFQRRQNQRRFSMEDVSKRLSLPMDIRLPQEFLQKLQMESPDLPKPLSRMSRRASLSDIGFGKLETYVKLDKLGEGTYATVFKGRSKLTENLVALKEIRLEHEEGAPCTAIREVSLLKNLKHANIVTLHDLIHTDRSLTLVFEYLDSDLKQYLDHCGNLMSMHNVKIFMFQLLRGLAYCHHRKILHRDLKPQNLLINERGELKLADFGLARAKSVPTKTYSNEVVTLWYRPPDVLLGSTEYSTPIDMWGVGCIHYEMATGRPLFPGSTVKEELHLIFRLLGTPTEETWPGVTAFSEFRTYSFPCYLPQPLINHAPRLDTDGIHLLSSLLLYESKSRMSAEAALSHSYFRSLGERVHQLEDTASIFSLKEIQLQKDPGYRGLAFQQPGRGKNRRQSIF
T20 sequence (Q8ND76 whole entry partner): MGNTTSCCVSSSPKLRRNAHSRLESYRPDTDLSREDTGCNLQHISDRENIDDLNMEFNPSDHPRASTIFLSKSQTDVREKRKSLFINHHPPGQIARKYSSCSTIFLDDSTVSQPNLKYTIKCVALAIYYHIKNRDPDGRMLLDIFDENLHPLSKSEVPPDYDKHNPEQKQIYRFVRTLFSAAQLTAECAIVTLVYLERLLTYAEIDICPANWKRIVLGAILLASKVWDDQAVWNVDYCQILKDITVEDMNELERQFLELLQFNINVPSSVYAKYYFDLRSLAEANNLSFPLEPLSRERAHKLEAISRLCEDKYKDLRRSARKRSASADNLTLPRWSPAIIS
T10 sequence (P53350 whole entry): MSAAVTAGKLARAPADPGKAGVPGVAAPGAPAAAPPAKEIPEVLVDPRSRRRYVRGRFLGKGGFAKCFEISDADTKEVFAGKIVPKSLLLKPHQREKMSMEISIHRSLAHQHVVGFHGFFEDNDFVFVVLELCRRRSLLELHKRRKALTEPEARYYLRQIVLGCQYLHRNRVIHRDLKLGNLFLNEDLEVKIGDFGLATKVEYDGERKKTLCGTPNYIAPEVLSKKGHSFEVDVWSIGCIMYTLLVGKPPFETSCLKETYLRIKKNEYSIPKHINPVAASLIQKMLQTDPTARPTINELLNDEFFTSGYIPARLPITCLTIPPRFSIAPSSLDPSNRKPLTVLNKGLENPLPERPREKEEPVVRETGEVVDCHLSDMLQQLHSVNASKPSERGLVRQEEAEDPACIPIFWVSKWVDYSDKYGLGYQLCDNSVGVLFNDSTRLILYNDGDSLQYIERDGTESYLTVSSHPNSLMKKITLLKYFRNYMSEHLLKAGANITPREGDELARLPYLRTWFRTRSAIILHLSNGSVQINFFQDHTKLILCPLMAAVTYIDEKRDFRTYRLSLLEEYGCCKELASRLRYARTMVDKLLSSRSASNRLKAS
T5 sequence (Q8N5S9 whole entry): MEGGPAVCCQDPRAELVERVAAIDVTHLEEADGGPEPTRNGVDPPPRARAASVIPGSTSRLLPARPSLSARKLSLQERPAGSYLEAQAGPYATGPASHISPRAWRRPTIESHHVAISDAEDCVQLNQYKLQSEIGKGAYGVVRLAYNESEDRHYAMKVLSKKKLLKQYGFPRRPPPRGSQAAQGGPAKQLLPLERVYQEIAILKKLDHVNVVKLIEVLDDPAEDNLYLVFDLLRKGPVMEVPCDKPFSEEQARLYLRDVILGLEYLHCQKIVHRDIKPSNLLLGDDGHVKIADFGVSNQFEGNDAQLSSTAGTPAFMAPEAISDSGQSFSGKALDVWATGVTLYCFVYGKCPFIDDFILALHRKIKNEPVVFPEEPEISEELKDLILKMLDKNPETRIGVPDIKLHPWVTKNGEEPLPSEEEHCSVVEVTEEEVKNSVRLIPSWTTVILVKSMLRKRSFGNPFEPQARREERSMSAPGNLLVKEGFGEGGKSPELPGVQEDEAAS
T31 sequence (P15056 whole entry): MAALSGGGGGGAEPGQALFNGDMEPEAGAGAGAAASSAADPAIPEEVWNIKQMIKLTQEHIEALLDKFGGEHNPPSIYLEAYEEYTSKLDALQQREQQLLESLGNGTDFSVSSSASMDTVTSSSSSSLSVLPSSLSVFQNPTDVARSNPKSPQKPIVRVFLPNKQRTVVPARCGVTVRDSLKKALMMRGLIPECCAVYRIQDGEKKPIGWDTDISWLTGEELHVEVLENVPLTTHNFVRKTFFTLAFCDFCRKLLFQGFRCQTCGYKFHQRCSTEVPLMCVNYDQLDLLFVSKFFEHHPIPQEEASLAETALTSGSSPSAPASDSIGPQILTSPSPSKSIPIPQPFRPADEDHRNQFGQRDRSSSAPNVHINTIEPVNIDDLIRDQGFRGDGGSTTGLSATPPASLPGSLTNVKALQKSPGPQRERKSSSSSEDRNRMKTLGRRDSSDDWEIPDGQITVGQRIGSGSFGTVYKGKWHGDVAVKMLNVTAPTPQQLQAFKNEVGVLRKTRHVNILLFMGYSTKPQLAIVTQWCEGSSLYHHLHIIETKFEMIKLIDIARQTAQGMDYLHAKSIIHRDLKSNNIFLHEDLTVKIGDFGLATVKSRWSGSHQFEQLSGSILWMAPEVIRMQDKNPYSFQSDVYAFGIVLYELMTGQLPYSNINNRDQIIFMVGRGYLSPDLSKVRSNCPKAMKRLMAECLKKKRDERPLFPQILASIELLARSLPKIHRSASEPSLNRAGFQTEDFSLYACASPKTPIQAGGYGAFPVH
T18 sequence (Q5TCX8 whole entry): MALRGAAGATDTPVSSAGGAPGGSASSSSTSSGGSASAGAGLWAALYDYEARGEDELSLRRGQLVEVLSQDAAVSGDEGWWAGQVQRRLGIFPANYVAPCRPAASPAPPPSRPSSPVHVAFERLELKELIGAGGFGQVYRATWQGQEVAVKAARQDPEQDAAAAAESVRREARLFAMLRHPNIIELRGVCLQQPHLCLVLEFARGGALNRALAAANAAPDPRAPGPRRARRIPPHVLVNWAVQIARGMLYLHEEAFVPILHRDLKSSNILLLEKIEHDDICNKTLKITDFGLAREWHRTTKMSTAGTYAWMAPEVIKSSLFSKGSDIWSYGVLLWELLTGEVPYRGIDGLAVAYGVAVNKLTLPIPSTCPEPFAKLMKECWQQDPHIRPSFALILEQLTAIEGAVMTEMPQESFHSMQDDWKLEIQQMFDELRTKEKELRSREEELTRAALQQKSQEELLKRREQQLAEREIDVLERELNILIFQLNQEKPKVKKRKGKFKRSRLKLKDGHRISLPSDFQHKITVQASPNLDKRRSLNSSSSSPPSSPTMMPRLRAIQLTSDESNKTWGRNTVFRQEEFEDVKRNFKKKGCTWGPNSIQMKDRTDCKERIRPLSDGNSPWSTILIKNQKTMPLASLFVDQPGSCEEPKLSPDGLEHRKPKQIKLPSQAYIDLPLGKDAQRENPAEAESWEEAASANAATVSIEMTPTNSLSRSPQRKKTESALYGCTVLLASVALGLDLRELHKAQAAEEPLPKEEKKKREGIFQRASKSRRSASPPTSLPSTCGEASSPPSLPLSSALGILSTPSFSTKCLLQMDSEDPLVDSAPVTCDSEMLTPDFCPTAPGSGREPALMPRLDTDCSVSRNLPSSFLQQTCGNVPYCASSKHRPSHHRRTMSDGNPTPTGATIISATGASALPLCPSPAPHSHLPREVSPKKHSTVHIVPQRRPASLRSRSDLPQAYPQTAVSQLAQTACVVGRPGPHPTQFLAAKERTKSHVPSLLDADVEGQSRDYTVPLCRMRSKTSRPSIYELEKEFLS

Structure (SMILES): CCn1cnc2c(NCc3ccc(-c4ccccn4)nc3)nc(-c3ccc(N)nc3)nc21 [Compound 30d, N-([2,2′-Bipyridin]-5-ylmethyl)-2-(6-aminopyridin-3-yl)-9-ethyl-9H-purin-6-amine]
- remaining activity at 10 µM (MRCKb): 99.3%
- remaining activity at 10 µM (PASK): 96.3%
- remaining activity at 10 µM (RIPK4): 97.8%
- inhibition at 10 µM (CDK3/cyclinE): > 95%
- remaining activity at 10 µM (CDK3/cyclinE): 1%
- remaining activity at 10 µM (CAMKK1): 18.7%
- remaining activity at 10 µM (TAOK1): 28.1%
- inhibition at 10 µM (MYLK4): > 95%
- remaining activity at 10 µM (MYLK4): 4.1%
- remaining activity at 10 µM (CSNK1D): 10.2%
- remaining activity at 10 µM (ZAK): 97.5%
- remaining activity at 10 µM (PLK1): 68.3%
- remaining activity at 10 µM (PRKCI): 86.1%
- remaining activity at 10 µM (GRK1): 76.3%
- remaining activity at 10 µM (MRCKa): 96.6%
- remaining activity at 10 µM (DMPK2): 92.4%
- remaining activity at 10 µM (BLK): 66.8%
- remaining activity at 10 µM (TTBK1): 108%
- remaining activity at 10 µM (RSK1): 59.1%
- remaining activity at 10 µM (MLK4): 114%
- remaining activity at 10 µM (CLK4): 28.7%
- inhibition at 10 µM (PCTK3; CDK18): > 95%
- remaining activity at 10 µM (PCTK3; PCTK3 (listed as CDK18 in Figure 6)): 2.5%
- remaining activity at 10 µM (STK33): 33.5%
- remaining activity at 10 µM (MLK2): 62.3%
- remaining activity at 10 µM (MARK3): 83.1%
- remaining activity at 10 µM (GRK2): 99.1%
- remaining activity at 10 µM (MEK5): 84.1%
- remaining activity at 10 µM (PKCb1): 89.9%
- remaining activity at 10 µM (MNK2): 91.2%
- remaining activity at 10 µM (LCK): 83.6%
- remaining activity at 10 µM (PCTK2): 7.3%
- remaining activity at 10 µM (TAK1): 98.2%
- remaining activity at 10 µM (BRAF): 60.8%
- remaining activity at 10 µM (NEK11): 94.3%
- remaining activity at 10 µM (BMPR1A): 126%
- remaining activity at 10 µM (PBK/TOPK): 93.5%
- remaining activity at 10 µM (CSNK1G2): 27%
- remaining activity at 10 µM (SNRK): 93%
- remaining activity at 10 µM (AurkA): 33.4%
- remaining activity at 10 µM (FAK): 52.5%
- remaining activity at 10 µM (MYO3A): 71.3%
- remaining activity at 10 µM (DAPK1): 99.7%
- remaining activity at 10 µM (ULK1): 70.3%
- remaining activity at 10 µM (LOK): 41.4%
- remaining activity at 10 µM (NIM1): 76%
